These results are taken from publication PMC4317055 (Journal of Medicinal Chemistry, 2014).

The target in assay [1] is T1, human factor XIa (Homo sapiens, UniProt P03951). The experiment in a line: Dose-response inhibition of wild-type factor XIa, S-2366 hydrolysis assay. The following applies: for HS (Hill slope) / Y0 (minimum value of the residual activity): logistic fit eq 1; for Y0 (minimum value of the residual activity): residual activity Y in %; for improvement in potency over the best sulfated QAO designed earlier: comparison with earlier studies.
T1 sequence (P03951 19-387 limits assumed): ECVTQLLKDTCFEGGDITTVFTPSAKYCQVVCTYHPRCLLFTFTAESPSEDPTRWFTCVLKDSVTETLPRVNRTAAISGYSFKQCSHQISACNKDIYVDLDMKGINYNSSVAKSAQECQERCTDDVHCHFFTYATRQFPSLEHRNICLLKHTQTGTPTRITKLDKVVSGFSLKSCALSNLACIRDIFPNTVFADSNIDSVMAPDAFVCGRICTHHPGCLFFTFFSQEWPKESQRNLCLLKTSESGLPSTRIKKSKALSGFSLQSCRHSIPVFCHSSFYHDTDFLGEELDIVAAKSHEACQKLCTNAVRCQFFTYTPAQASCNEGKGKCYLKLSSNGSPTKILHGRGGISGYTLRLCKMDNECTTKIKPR
T1 sequence (P03951 388-625 limits assumed): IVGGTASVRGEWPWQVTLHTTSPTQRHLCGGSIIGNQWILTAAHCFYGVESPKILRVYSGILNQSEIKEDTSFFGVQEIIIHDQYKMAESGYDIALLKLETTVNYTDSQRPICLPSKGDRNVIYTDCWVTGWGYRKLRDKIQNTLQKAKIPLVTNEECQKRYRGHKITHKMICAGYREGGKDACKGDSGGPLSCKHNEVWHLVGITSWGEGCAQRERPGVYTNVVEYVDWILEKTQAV

For assay [2], the target named is T1, human factor XIa. Description: Michaelis-Menten kinetics of S-2366 hydrolysis in the presence of inhibitors. Format: biochemical. The following applies: for VMAX: S-2366 0-1.6 mM; for mechanism of inhibition: VMAX reduced dose-dependently without significant change in KM.
Another assay has as its system factor XIa. Description: Competitive inhibition studies using unfractionated heparin as a competitor. The following applies: UFH 0 to 16 μM; 50 mM Tris-HCl pH 7.4, 37 °C. In kind it is biochemical, human.
Assay [3] deals with T1, human factor XIa. In kind it is biochemical. To be noted: 50 mM Tris-HCl pH 7.4, 37 °C; for reduction in residual fXIa activity (inhibition) in the screen: 300 μM inhibitor; for enhancement of fXIa catalysis in the screen: 300 μM compound.
For assay [4], the system named is fluorescein-EGR factor XIa (fEGR-fXIa). In kind it is binding, human. The following applies: bolus giving ∼33 μM in fXIa solution quenched with 0.175 M NaI.

As to `COC(=O)c1c(C)oc2cc(OC)c(OCc3oc4cc(OC)c(OS(=O)(=O)[O-])cc4c3C(=O)OC)cc12.[Na+]` [compound 15], on human factor XIa [1], the “HS (Hill slope)” value is reported as 6.9 ± 1.2 and the “Y0 (minimum value of the residual activity)” value is recorded as 4 ± 4.

For `CCOC(=O)c1c(C)oc2cc(OC)c(OCc3oc4cc(OCC)c(OS(=O)(=O)[O-])cc4c3C(=O)OCC)cc12.[Na+]` [compound 21], the VMAX at human factor XIa [2] (21 at 5 μM, fXIa 0.365 nM) is 37.4 ± 1.4 mAU/min; on human factor XIa [2] (21 at 7.25 μM, fXIa 0.365 nM) it was 30.7 ± 0.6 mAU/min; on human factor XIa [2] (21 at 10 μM, fXIa 0.365 nM), 20.3 ± 1.2 mAU/min. Moreover, at human factor XIa [2], the mechanism of inhibition result was “noncompetitive inhibition”. Further, the “change in IC50 in the presence of UFH” value in the assay on factor XIa was “no significant change”. The “improvement in potency over the best sulfated QAO designed earlier” value on human factor XIa [1] was determined as 10 fold. For the same molecule, the “HS (Hill slope)” value on human factor XIa [1] is recorded as 1.9 ± 0.3. The “Y0 (minimum value of the residual activity)” value on human factor XIa [1] is reported as 0 ± 2.

In the case of `CCOC(=O)c1c(C)oc2cc(OCc3oc4cc(OC)c(OS(=O)(=O)[O-])cc4c3C(=O)OCC)c(OC)cc12.[Na+]` [compound 22], the “reduction in residual fXIa activity (inhibition) in the screen” value at human factor XIa [3] is listed as “did not inhibit fXIa”.

In the case of `CCOC(=O)c1c(C)oc2cc(OC)c(OCc3oc4cc(OC)c(OCc5oc6cc(OC)c(OS(=O)(=O)[O-])cc6c5C(=O)OC)cc4c3C(=O)OCC)cc12.[Na+]` [compound 23], at human factor XIa [1], the “HS (Hill slope)” value worked out at 5.2 ± 0.4 and the “Y0 (minimum value of the residual activity)” value turned out to be 7 ± 1.

Regarding `CCOC(=O)c1c(C)oc2cc(OC)c(OCc3oc4cc(OC)c(OCc5oc6cc(OCC)c(OS(=O)(=O)[O-])cc6c5C(=O)OCC)cc4c3C(=O)OCC)cc12.[Na+]` [compound 24], the VMAX on human factor XIa [2] (24 at 150 nM, fXIa 0.765 nM) came out at 57.1 ± 1.8 mAU/min; on human factor XIa [2] (24 at 300 nM, fXIa 0.765 nM) it was 48.7 ± 1.7 mAU/min; at human factor XIa [2] (24 at 550 nM, fXIa 0.765 nM) it was 34.9 ± 0.9 mAU/min; at human factor XIa [2] (24 at 900 nM, fXIa 0.765 nM) it was 9.8 ± 0.5 mAU/min. The mechanism of inhibition entry at human factor XIa [2] was “noncompetitive inhibition”. Also, the “change in IC50 in the presence of UFH” value with factor XIa was “no significant change”. Also, the “improvement in potency over the best sulfated QAO designed earlier” value on human factor XIa [1] is listed as around 50 fold. Also, at human factor XIa [1], the “HS (Hill slope)” value is 3.8 ± 0.3. Further, the “Y0 (minimum value of the residual activity)” value on human factor XIa [1] is 0 ± 1. For the same molecule, the “nature of the interaction with fXIa (recovery of fluorescence after bolus)” value in assay [4] is “fully reversible”.

Consider `CCOC(=O)c1c(C)oc2cc(OC)c(OCc3oc4cc(OC)c(OCc5oc6cc(OC(C)C)c(OS(=O)(=O)[O-])cc6c5C(=O)OCC)cc4c3C(=O)OCC)cc12.[Na+]` [compound 25], for which, at human factor XIa [1], the “HS (Hill slope)” value amounted to 6.6 ± 0.8 and the “Y0 (minimum value of the residual activity)” value amounted to 3 ± 2.

On to `CCOC(=O)c1c(C)oc2cc(OC)c(OCc3oc4cc(OC)c(OCc5oc6cc(OC)c(OS(=O)(=O)[O-])cc6c5C(=O)OCC)cc4c3C(=O)OCC)cc12.[Na+]` [compound 27], for which, on human factor XIa [1], the “HS (Hill slope)” value turned out to be 11.7 ± 1.5 and the “Y0 (minimum value of the residual activity)” value stood at 2 ± 1.

For `C=CCOC(=O)c1c(C)oc2cc(OC)c(OCc3oc4cc(OC)c(OCc5oc6cc(OC)c(OS(=O)(=O)[O-])cc6c5C(=O)OCC)cc4c3C(=O)OCC)cc12.[Na+]` [compound 28], on human factor XIa [1], the “HS (Hill slope)” value was 6.4 ± 0.9 and the “Y0 (minimum value of the residual activity)” value came out at 10 ± 2.

For the molecule `CCOC(=O)c1c(COc2cc3c(C(=O)OCC)c(COc4cc5c(C(=O)O)c(C)oc5cc4OC)oc3cc2OC)oc2cc(OC)c(O)cc12` [compound 29], on human factor XIa [1] (IC50 ratio 29 vs 30), the “loss in activity from sulfated analogue 30” value was around 13 fold. At human factor XIa [1], the “HS (Hill slope)” value stood at 1.9 ± 0.4 and the “Y0 (minimum value of the residual activity)” value is reported as 0 ± 1.

In the case of `CCOC(=O)c1c(COc2cc3c(C(=O)O)c(C)oc3cc2OC)oc2cc(OC)c(OCc3oc4cc(OC)c(OS(=O)(=O)[O-])cc4c3C(=O)OCC)cc12.[Na+]` [compound 30], at human factor XIa [1] (IC50 ratio 30 vs 27), the “less potent than 3-carboxyethyl ester analogue 27” value came out at 4.7 fold. On human factor XIa [1], the “HS (Hill slope)” value was 6.9 ± 0.7 and the “Y0 (minimum value of the residual activity)” value turned out to be 3 ± 2.

In the case of `CCOC(=O)c1c(C)oc2cc(OC)c(OCc3oc4cc(OC)c(OCc5oc6cc(OS(=O)(=O)[O-])c(OC)cc6c5C(=O)OCC)cc4c3C(=O)OCC)cc12.[Na+]` [compound 31], the “reduction in residual fXIa activity (inhibition) in the screen” value on human factor XIa [3] is “did not inhibit fXIa”.

On to `CCOC(=O)c1c(C)oc2cc(OC)c(OCc3oc4cc(OC)c(OCc5oc6cc(OC)c(OCc7oc8cc(OC)c(OS(=O)(=O)[O-])cc8c7C(=O)OCC)cc6c5C(=O)OCC)cc4c3C(=O)OCC)cc12.[Na+]` [compound 32], for which, at human factor XIa [1], the “HS (Hill slope)” value is 1.3 ± 0.2 and the “Y0 (minimum value of the residual activity)” value stood at 0 ± 1.

Turning to `O=C(c1cc(OS(=O)(=O)[O-])cc(OS(=O)(=O)[O-])c1)N1CCc2cc(OS(=O)(=O)[O-])c(OS(=O)(=O)[O-])cc2C1.[Na+].[Na+].[Na+].[Na+]` [compound 33], the “enhancement of fXIa catalysis in the screen” value (shortened to “enhancement of fXIa catalysis”) at human factor XIa [3] is listed as 20–30%.

Regarding `CCOC(=O)C1Cc2cc(OS(=O)(=O)[O-])c(OS(=O)(=O)[O-])cc2CN1C(=O)c1ccc(OS(=O)(=O)[O-])c(OS(=O)(=O)[O-])c1.[Na+].[Na+].[Na+].[Na+]` (stereo not shown) [compound 35], the “enhancement of fXIa catalysis” value at human factor XIa [3] is on record as 20–30%.

Regarding `O=C(c1cc(OS(=O)(=O)[O-])c(OS(=O)(=O)[O-])c(OS(=O)(=O)[O-])c1)N1CCc2cc(OS(=O)(=O)[O-])c(OS(=O)(=O)[O-])cc2C1.[Na+].[Na+].[Na+].[Na+].[Na+]` [compound 36], the “enhancement of fXIa catalysis” value on human factor XIa [3] is 20–30%.

Turning to `O=C([O-])C1Cc2cc(OS(=O)(=O)[O-])c(OS(=O)(=O)[O-])cc2CN1C(=O)c1cc(OS(=O)(=O)[O-])c(OS(=O)(=O)[O-])c(OS(=O)(=O)[O-])c1.[Na+].[Na+].[Na+].[Na+].[Na+].[Na+]` (stereo not shown) [compound 37], the “enhancement of fXIa catalysis” value at human factor XIa [3] is 20–30%.

Turning to `N#Cc1c(SCC(=O)c2cccc(OS(=O)(=O)[O-])c2OS(=O)(=O)[O-])nc([N+](=O)[O-])c(C#N)c1-c1ccc(Oc2ccccc2)cc1.[Na+].[Na+]` [compound 61], on human factor XIa [1], the “HS (Hill slope)” value worked out at 6.2 ± 0.5 and the “Y0 (minimum value of the residual activity)” value stood at 0 ± 1.

For `O=C(Nc1ccc(OS(=O)(=O)[O-])cc1)c1cccc(N2C(=O)c3ccc(C(=O)Nc4ccc(OS(=O)(=O)[O-])cc4)cc3C2=O)c1.[Na+].[Na+]` [compound 63], on human factor XIa [1], the “HS (Hill slope)” value was 6.0 ± 0.9 and the “Y0 (minimum value of the residual activity)” value came to 0 ± 1.
